# Results as given in patent publication US9322066B2, “Predictors for cancer treatment” (priority 2011, dated 2016).
# Test system: relapsed or refractory, rituximab-naive or -sensitive follicular B-cell NHL
# Assay: Time to next anti-lymphoma therapy, Vc-R vs rituximab study, by biomarker
# Assay type: in vivo, human
# Set-up: Median, Time to Next Anti-Lymphoma Therapy / Time to Next Anti-Lymphoma Therapy, Median: unit not given here
# From the text: Non-Hodgkin lymphoma (NHL) encompasses several unique malignant lymphoid disease entities that vary in clinical behavior, morphologic appearance, immunologic, and molecular phenotype. […] A randomized, open-label, active-controlled, multicenter, multinational, prospective study to compare the efficacy and safety of the combination of bortezomib and rituximab (Vc-R) to single-agent rituximab in subjects who have relapsed or refractory, rituximab-naive or -sensitive follicular B-cell NHL was performed.
# Subjects were centrally randomized to Treatment Groups A (Vc-R) or B (rituximab) in a 1:1 ratio taking into account the following stratification factors: • Follicular Lymphoma International Prognostic Index (FLIPI) score (low [0 or 1 factor], intermediate [2 factors], high [≧3 factors]); • Prior rituximab therapy (yes, no); • Time since last dose of anti-lymphoma therapy (≦1 year, >1 year); • Region (United States/Canada, European Union, Rest of World).
# The following clinical endpoints were included in the analysis within each treatment group and an overall comparison was made with the biomarker-related endpoints: Progression-free survival, defined as the interval between the date of randomization and the date of progressive disease (PD) or death, whichever is first reported in the ITT population; overall survival; overall response rate (complete response [CR]+CR unconfirmed [CRu]+partial response [PR]); overall CR rate (CR+CRu); duration of response; time to next anti-lymphoma therapy; and treatment free interval.
# [1] = CD68 POSITIVE PERIFOLLICULAR: 0-25, White, IRC Review
# [2] = CD68 POSITIVE PERIFOLLICULAR: 0-25, ≦65 years old, IRC Review
# [3] = CD68 POSITIVE PERIFOLLICULAR: 26-50, Other, IRC Review
# [4] = CD68 POSITIVE PERIFOLLICULAR: >75, 1 Prior Line of Therapy, IRC Review
# [5] = CD68 POSITIVE PERIFOLLICULAR: >75, European Union, IRC Review
# [6] = CD68 POSITIVE PERIFOLLICULAR: >75, ≦65 years old, IRC Review
# [7] = NOTCH/G_A1702P: MND, subgroup White, IRC review
# [8] = NOTCH/I1681N: MND, subgroup White, IRC review
# [9] = NOTCH/L1679P: MND, subgroup White, IRC review
# [10] = NOTCH/L1679Q: MND, subgroup White, IRC review
# [11] = NOTCH/L2458V: MND, subgroup White, IRC review
# [12] = NOTCH/P2513L: MND, subgroup White, IRC review
# [13] = NOTCH/P2515FS4: MND, subgroup White, IRC review
# [14] = NOTCH/Q2441X: MND, subgroup White, IRC review
# [15] = NOTCH/Q2460X: MND, subgroup White, IRC review
# [16] = NOTCH/X26DEL: MND, subgroup White, IRC review
# [17] = NOTCH/X26INS: MND, subgroup White, IRC review
# [18] = NOTCH/X28DEL: MND, subgroup White, IRC review
# [19] = NOTCH/X28INS: MND, subgroup White, IRC review
# [20] = P27 % NUCLEI POSITIVE: 0-20, 1 Prior Line of Therapy, IRC Review
# [21] = P27 % NUCLEI POSITIVE: 0-20, Ann Arbor Stage III, IRC Review
# [22] = P27 % NUCLEI POSITIVE: 0-20, High Tumor Burden, IRC Review
# [23] = P27 % NUCLEI POSITIVE: 0-20, ≦65 years old, IRC Review
# [24] = P27 % NUCLEI POSITIVE: 30-50, High Tumor Burden, IRC Review
# [25] = P27 % NUCLEI POSITIVE: 80-100, European Union, IRC Review
# [26] = P27 SIGNAL INTENSITY: ≦1+, High Tumor Burden, IRC Review
# [27] = P27 SIGNAL INTENSITY: ≧2+, 5 Prior Lines of Therapy, IRC Review
# [28] = P27 SIGNAL INTENSITY: ≧2+, European Union, IRC Review
# [29] = P27 SIGNAL INTENSITY: ≧2+, Prior Rituximab Therapy, IRC Review
# [30] = P27 SIGNAL INTENSITY: ≧2+, White, IRC Review
# [31] = P27 SIGNAL INTENSITY: ≧2+, ≦65 years old, IRC Review
# [32] = P27 SIGNAL TENSITY: ≧2+, No Subgroup, IRC Review
# [33] = P65 % NUCLEAR STAINING: 0, 1 Prior Line of Therapy, IRC Review
# [34] = P65 % NUCLEAR STAINING: ≦5%, 2 Prior Lines of Therapy, IRC Review
# [35] = P65 % NUCLEAR STAINING: ≦5%, 5 Prior Lines of Therapy, IRC Review
# [36] = P65 % NUCLEAR STAINING: ≦5%, Prior Rituximab Therapy, IRC Review
# [37] = P65 % NUCLEAR STAINING: ≦5%, ≦65 years old, IRC Review
# [38] = P65 % POSITIVE CYTOPLASMIC SIGNAL: >90%, 1 Prior Line of Therapy, IRC Review
# [39] = P65 % POSITIVE CYTOPLASMIC SIGNAL: >90%, >1 year since last anti- lymphoma treatment, IRC Review
# [40] = P65 % POSITIVE CYTOPLASMIC SIGNAL: >90%, European Union, IRC Review
# [41] = P65 % POSITIVE CYTOPLASMIC SIGNAL: >90%, Male, IRC Review
# [42] = P65 % POSITIVE CYTOPLASMIC SIGNAL: >90%, No Subgroup, IRC Review
# [43] = P65 % POSITIVE CYTOPLASMIC SIGNAL: >90%, White, IRC Review
# [44] = P65 % POSITIVE CYTOPLASMIC SIGNAL: >90%, ≦65 years old, IRC Review
# [45] = P65 INTENSITY CYTOPLASMIC SIGNAL: ≦1+, Ann Arbor Stage III, IRC Review
# [46] = P65 INTENSITY CYTOPLASMIC SIGNAL: ≦1+, European Union, IRC Review
# [47] = P65 INTENSITY CYTOPLASMIC SIGNAL: ≧2+, 1 Prior Line of Therapy, IRC Review
# [48] = P65 INTENSITY CYTOPLASMIC SIGNAL: ≧2+, Female, IRC Review
# [49] = P65 INTENSITY CYTOPLASMIC SIGNAL: ≧2+, White, IRC Review
substance,measurement,setting,value
rituximab,"Evt/N, Time to Next Anti-Lymphoma Therapy",[1],19/27
same,"Median, Time to Next Anti-Lymphoma Therapy",[1],501
same,"Evt/N, Time to Next Anti-Lymphoma Therapy",[2],20/31
same,"Median, Time to Next Anti-Lymphoma Therapy",[2],332
same,"Evt/N, Time to Next Anti-Lymphoma Therapy",[3],4/4
same,"Median, Time to Next Anti-Lymphoma Therapy",[3],341
same,"Evt/N, Time to Next Anti-Lymphoma Therapy",[4],15/18
same,"Median, Time to Next Anti-Lymphoma Therapy",[4],437
same,"Evt/N, Time to Next Anti-Lymphoma Therapy",[5],13/17
same,"Median, Time to Next Anti-Lymphoma Therapy",[5],675
same,"Evt/N, Time to Next Anti-Lymphoma Therapy",[6],19/23
same,"Median, Time to Next Anti-Lymphoma Therapy",[6],437
same,"Evt/N, Time to Next Anti-Lymphoma Therapy",[7],97/152
same,"Median, Time to Next Anti-Lymphoma Therapy",[7],504
same,"Evt/N, Time to Next Anti-Lymphoma Therapy",[8],97/152
same,"Median, Time to Next Anti-Lymphoma Therapy",[8],504
same,"Evt/N, Time to Next Anti-Lymphoma Therapy",[9],97/152
same,"Median, Time to Next Anti-Lymphoma Therapy",[9],504
same,"Evt/N, Time to Next Anti-Lymphoma Therapy",[10],97/152
same,"Median, Time to Next Anti-Lymphoma Therapy",[10],504
same,"Evt/N, Time to Next Anti-Lymphoma Therapy",[11],89/140
same,"Median, Time to Next Anti-Lymphoma Therapy",[11],504
same,"Evt/N, Time to Next Anti-Lymphoma Therapy",[12],78/122
same,"Median, Time to Next Anti-Lymphoma Therapy",[12],504
same,"Evt/N, Time to Next Anti-Lymphoma Therapy",[13],99/154
same,"Median, Time to Next Anti-Lymphoma Therapy",[13],505
same,"Evt/N, Time to Next Anti-Lymphoma Therapy",[14],88/139
same,"Median, Time to Next Anti-Lymphoma Therapy",[14],501
same,"Evt/N, Time to Next Anti-Lymphoma Therapy",[15],85/131
same,"Median, Time to Next Anti-Lymphoma Therapy",[15],501
same,"Evt/N, Time to Next Anti-Lymphoma Therapy",[16],99/155
same,"Median, Time to Next Anti-Lymphoma Therapy",[16],505
same,"Evt/N, Time to Next Anti-Lymphoma Therapy",[17],101/159
same,"Median, Time to Next Anti-Lymphoma Therapy",[17],533
same,"Evt/N, Time to Next Anti-Lymphoma Therapy",[18],111/169
same,"Median, Time to Next Anti-Lymphoma Therapy",[18],504
same,"Evt/N, Time to Next Anti-Lymphoma Therapy",[19],115/174
same,"Median, Time to Next Anti-Lymphoma Therapy",[19],504
same,"Evt/N, Time to Next Anti-Lymphoma Therapy",[20],19/26
same,"Median, Time to Next Anti-Lymphoma Therapy",[20],434
same,"Evt/N, Time to Next Anti-Lymphoma Therapy",[21],14/16
same,"Median, Time to Next Anti-Lymphoma Therapy",[21],418
same,"Evt/N, Time to Next Anti-Lymphoma Therapy",[22],23/27
same,"Median, Time to Next Anti-Lymphoma Therapy",[22],220
same,"Evt/N, Time to Next Anti-Lymphoma Therapy",[23],26/34
same,"Median, Time to Next Anti-Lymphoma Therapy",[23],327
same,"Evt/N, Time to Next Anti-Lymphoma Therapy",[24],17/22
same,"Median, Time to Next Anti-Lymphoma Therapy",[24],421
same,"Evt/N, Time to Next Anti-Lymphoma Therapy","P27 % NUCLEI POSITIVE: 60-70, 3 Prior Lines of Therapy, IRC Review",1/6
same,"Evt/N, Time to Next Anti-Lymphoma Therapy",[25],29/41
same,"Median, Time to Next Anti-Lymphoma Therapy",[25],655
same,"Evt/N, Time to Next Anti-Lymphoma Therapy",[26],16/18
same,"Median, Time to Next Anti-Lymphoma Therapy",[26],220
same,"Evt/N, Time to Next Anti-Lymphoma Therapy",[27],5/6
same,"Median, Time to Next Anti-Lymphoma Therapy",[27],228
same,"Evt/N, Time to Next Anti-Lymphoma Therapy",[28],57/89
same,"Median, Time to Next Anti-Lymphoma Therapy",[28],649
same,"Evt/N, Time to Next Anti-Lymphoma Therapy",[29],60/88
same,"Median, Time to Next Anti-Lymphoma Therapy",[29],421
same,"Evt/N, Time to Next Anti-Lymphoma Therapy",[30],113/177
same,"Median, Time to Next Anti-Lymphoma Therapy",[30],533
same,"Evt/N, Time to Next Anti-Lymphoma Therapy",[31],103/153
same,"Median, Time to Next Anti-Lymphoma Therapy",[31],484
same,"Evt/N, Time to Next Anti-Lymphoma Therapy",[32],127/199
same,"Median, Time to Next Anti-Lymphoma Therapy",[32],533
same,"Evt/N, Time to Next Anti-Lymphoma Therapy",[33],54/79
same,"Median, Time to Next Anti-Lymphoma Therapy",[33],546
same,"Evt/N, Time to Next Anti-Lymphoma Therapy",[34],7/9
same,"Median, Time to Next Anti-Lymphoma Therapy",[34],225
same,"Evt/N, Time to Next Anti-Lymphoma Therapy",[35],3/3
same,"Median, Time to Next Anti-Lymphoma Therapy",[35],235
same,"Evt/N, Time to Next Anti-Lymphoma Therapy",[36],16/21
same,"Median, Time to Next Anti-Lymphoma Therapy",[36],232
same,"Evt/N, Time to Next Anti-Lymphoma Therapy",[37],19/29
same,"Median, Time to Next Anti-Lymphoma Therapy",[37],374
same,"Evt/N, Time to Next Anti-Lymphoma Therapy",[38],59/89
same,"Median, Time to Next Anti-Lymphoma Therapy",[38],550
same,"Evt/N, Time to Next Anti-Lymphoma Therapy",[39],69/117
same,"Median, Time to Next Anti-Lymphoma Therapy",[39],593
same,"Evt/N, Time to Next Anti-Lymphoma Therapy",[40],57/92
same,"Median, Time to Next Anti-Lymphoma Therapy",[40],552
same,"Evt/N, Time to Next Anti-Lymphoma Therapy",[41],51/72
same,"Median, Time to Next Anti-Lymphoma Therapy",[41],427
same,"Evt/N, Time to Next Anti-Lymphoma Therapy",[42],129/204
same,"Median, Time to Next Anti-Lymphoma Therapy",[42],505
same,"Evt/N, Time to Next Anti-Lymphoma Therapy",[43],113/179
same,"Median, Time to Next Anti-Lymphoma Therapy",[43],505
same,"Evt/N, Time to Next Anti-Lymphoma Therapy",[44],103/154
same,"Median, Time to Next Anti-Lymphoma Therapy",[44],484
same,"Evt/N, Time to Next Anti-Lymphoma Therapy",[45],10/11
same,"Median, Time to Next Anti-Lymphoma Therapy",[45],261
same,"Evt/N, Time to Next Anti-Lymphoma Therapy",[46],13/18
same,"Median, Time to Next Anti-Lymphoma Therapy",[46],409
same,"Evt/N, Time to Next Anti-Lymphoma Therapy",[47],54/85
same,"Median, Time to Next Anti-Lymphoma Therapy",[47],568
same,"Evt/N, Time to Next Anti-Lymphoma Therapy",[48],74/129
same,"Median, Time to Next Anti-Lymphoma Therapy",[48],537
same,"Evt/N, Time to Next Anti-Lymphoma Therapy",[49],109/176
same,"Median, Time to Next Anti-Lymphoma Therapy",[49],533
same,"Evt/N, Time to Next Anti-Lymphoma Therapy","P65 INTENSITY CYTOPLASMIC SIGNAL: ≧2+, ≦65 years old, IRC Review",101/152
